The record followed here is patent publication US20030158093A1, “Bifunctional glycopeptide antibiotics and combinatorial libararies thereof” (priority 2001, published 2003).

Values after ≈ are worked out from the molar mass of the structure shown.

Format in all cases: cell-based
Test [1] concerns E. faecalis sensitive (29212). Kind of test: MIC, standard microdilution assay, E. faecalis sensitive. Conditions: strain 29212; for MIC: Enterococcus faecalis, 22 h. The protocol:
(§1) Briefly, compound 7 and compound 10 were synthesized by utilizing procedures described, for example, in Thompson, C. et al., J. Am. Chem. Soc., 1999, 121, 1237. Compound 8 was prepared from tri-O-acetyl-D-glucal by a one-step procedure described by Chen, Z. Ph.D. Dissertation, Princeton University, Princeton, N.J. 2001.

The subject of test [2] is E. faecium sensitive (49624). Kind of test: MIC, standard microdilution assay, E. faecium sensitive. Conditions: strain 49624; for MIC: Enterococcus faecium, 22 h. The protocol:
as §1

Test [3] relates to E. faecalis resistant (VanB) (CL4877). In words: MIC, standard microdilution assay, E. faecalis resistant (VanB). Conditions: strain CL4877; for MIC: Enterococcus faecalis, 22 h. The protocol:
as §1
(Broth dilution looks for growth in wells or tubes with falling amounts of substance.)

The test system of test [4] is E. faecium resistant (VanA) (CL4931). In words: MIC, standard microdilution assay, E. faecium resistant (VanA). Conditions: strain CL4931; for MIC: Enterococcus faecium, 22 h. The protocol: as §1
Test [5] concerns transglycosylation. In words: Inhibition of transglycosylation in a permeabilized E. coli model.
For test [6], the system named is S. aureus (29213). Kind of test: MIC, standard microdilution assay, S. aureus. The following applies: strain 29213; for MIC: Staphylococcus aureus, 22 h. The protocol:
as §1

A word on the MIC: it is the lowest concentration found to suppress growth. Read a low MIC as inhibition by little substance.

Regarding `CCCCCCCCCCCCOP(=O)(O)OC1OC(C(N)=O)C(OC)C(NC(=O)Nc2ccc(Cl)c(C(F)(F)F)c2)C1OC1OC(CO)C(O)C(O)C1NC(=O)c1cccc(C(F)(F)F)c1` (stereo not drawn) [Compound 4], the MIC in test [1] (Table 2) amounted to 6.2 µg/mL (≈ 6.14 µM); in test [2] (Table 2), 6.2 µg/mL (≈ 6.14 µM); in test [3] (Table 2), 3.1 µg/mL (≈ 3.07 µM); in test [4] (Table 2), 6.2 µg/mL (≈ 6.14 µM); in test [6] (Table 2), 6.2 µg/mL (≈ 6.14 µM). Further, the inhibition of transglycosylation result in test [5] is “inhibits transglycosylation”.
For the molecule `COc1cccc(OC)c1OCCOC1OC(C(N)=O)C(OC)C(NC(=O)Nc2ccc(Cl)c(C(F)(F)F)c2)C1OC1OC(CO)C(O)C(O)C1NC(=O)c1cccc(C(F)(F)F)c1` (stereo not drawn) [Compound 6], the MIC came out at 125 µg/mL (≈ 133 µM) in test [1] (Table 2); 250 µg/mL (≈ 266 µM) in test [2] (Table 2); 250 µg/mL (≈ 266 µM) in test [3] (Table 2); 250 µg/mL (≈ 266 µM) in test [4] (Table 2); 125 µg/mL (≈ 133 µM) in test [6] (Table 2).
With `CN[C@H](CC(C)C)C(=O)N[C@H]1C(=O)N[C@@H](CC(N)=O)C(=O)N[C@H]2C(=O)N[C@H]3C(=O)N[C@H](C(=O)N[C@H](C(=O)O)c4cc(O)cc(O)c4-c4cc3ccc4O)[C@H](O)c3ccc(c(Cl)c3)Oc3cc2cc(c3O)Oc2ccc(cc2Cl)[C@H]1O` [Vancomycin Aglycon, Vancomycin aglycone], the “22-hr MIC E. faecalis sensitive” value in test [1] (Table 2) amounted to 8 µg/mL. Moreover, the “22-hr MIC E. faecium sensitive” value in test [2] (Table 2) was 2 µg/mL. Besides, the “22-hr MIC E. faecalis resistant (VanB)” value in test [3] (Table 2) is more than 500 µg/mL. Also, the “22-hr MIC E. faecium resistant (VanA)” value in test [4] (Table 2) was more than 500 µg/mL. The “22-hr MIC S. aureus” value in test [6] (Table 2) stood at 2 µg/mL.
For vancomycin [Compound 1a], the “MIC E. faecalis sensitive” value in test [1] (Table 1, 35° C., 22h) turned out to be 16 µg/mL. Moreover, the “MIC E. faecium sensitive” value in test [2] (Table 1, 35° C., 22h) worked out at 2 µg/mL. Further, the “MIC E. faecalis resistant (VanB)” value in test [3] (Table 1, 35° C., 22h) is more than 500 µg/mL. For the same molecule, the “MIC E. faecium resistant (VanA)” value in test [4] (Table 1, 35° C., 22h) was more than 500 µg/mL. Further, in test [6] (Table 1, 35° C., 22h), the “MIC S. aureus” value was determined as 4 µg/mL.
